Test results taken from article PMC9964957, “A Liquid Chromatography Tandem Mass Spectrometry Method for the Simultaneous Estimation of the Dopamine Receptor Antagonist LE300 and Its N-methyl Metabolite in Plasma: Application to a Pharmacokinetic Study” (Molecules, 2023).
Like-named read-outs stand apart in the source and are kept apart here.

Assays:
[1] = rat plasma
in vivo = conditions: male, Wistar, rat, plasma, po, 10 mg/kg
[2] = Stability in stock preparations; type: physicochemical; conditions: stock preparations kept at −80 °C for 28 days
Protocol: LE300 and MLE300 stock solutions were prepared separately in a mixture of methanol and water (1:1) at a concentration of 1 mg/mL. Ponatinib (IS) stock solution was prepared in DMSO at 1 mg/mL. […] Successive working solutions of LE300 and MLE300 were additionally obtained through dilution using ultrapure water at concentrations of 0.05, 0.5, 5, and 20 µg/mL. A working solution of IS was prepared in ultrapure water at a concentration of 20 ng/mL. Two calibrators at concentrations ranged from 1 to 200 ng/mL and 2 to 200 ng/mL for LE300 and MLE300, respectively, were prepared in blank rat plasma from the intermediate solutions. Different quality control samples for LE300 at 1.0 ng/mL for the LLOQ, 3.0 ng/mL for the QC sample at low concentration, (LOQ), 75 ng/mL for the QC sample at mid concentration (MQC), and 175 ng/mL for the QC sample at high concentration (HQC) were prepared by spiking an appropriate volume of the intermediate solutions with blank rat plasma. Similarly, different quality control samples for MLE300 at 2.0, 6.0, 90, and 180 ng/mL for LLOQ, LOQ, MQC, and HQC were prepared. The peak area ratios of LE300 and MLE300 to IS were treated to obtain the calibration curve of each drug. Alternatively, the corresponding regression equation was derived.

[3] = high QC (nominal 175 ng/mL LE300, 180 ng/mL MLE300)
[4] = low QC (nominal 3 ng/mL LE300, 6 ng/mL MLE300)

CL/F (total clearance of the drug from plasma after oral administration) (rat, in vivo, po, 10 mg/kg) | Autosampler Stability (24 h at 15 °C) [1, 3] | Freeze-Thaw Stability (3 cycles, −80 °C) [1, 3] | Long-Term Stability (−80 °C for 28 d) [1, 3] | Short-Term Stability (4 h at Room T) [1, 3] | Autosampler Stability (24 h at 15 °C) [1, 4] | Freeze-Thaw Stability (3 cycles, −80 °C) [1, 4] | Long-Term Stability (−80 °C for 28 d) [1, 4] | Short-Term Stability (4 h at Room T) [1, 4] | AUC(0-inf) (in vivo) | AUC(0-t) (in vivo) | Tmax (in vivo) | half-life (in vivo) | Cmax (in vivo; Cmax (maximum plasma concentration), rat plasma, single oral dose 10 mg/kg LE300, mean ± SD, six rats) | Stability in stock preparations [2] | CL/F (total clearance of the drug from plasma after oral administration) (rat plasma, single oral dose 10 mg/kg LE300, mean ± SD, six rats) | Cmax (in vivo) | Structure (SMILES)
0.017 ± 0.01 L/h | 98.9 ± 1.3% | 99.2 ± 1.3% | 99.2 ± 1.7% | 98.3 ± 1.8% | 98.5 ± 1.8% | 97.9 ± 1.5% | 97.7 ± 1.4% | 98.5 ± 1.6% | 577 ± 22.4 ng·h/mL | 524 ± 24.3 ng·h/mL | 2 ± 0.18 h | 7.38 ± 0.17 h | 151 ± 12.5 ng/mL | perfect stability | – | – | CN1CCc2ccccc2Cc2[nH]c3ccccc3c2CC1 [LE300, 7-methyl-6,7,8,9,14,15-hexahydro-5Hbenz[d]indolo[2,3-g]azecine]
– | 98.5 ± 1.7% | 99.5 ± 1.5% | 99.2 ± 2.3% | 98.8 ± 1.8% | 99.3 ± 1.7% | 98.2 ± 1.4% | 98.9 ± 1.4% | 97.9 ± 1.6% | 790 ± 37.2 ng·h/mL | 762 ± 34.3 ng·h/mL | 3 ± 0.18 h | 4.56 ± 0.29 h | – | perfect stability | 0.012 ± 0.01 L/h | 170 ± 26.3 ng/mL | CN1CCc2ccccc2Cc2c(c3ccccc3n2C)CC1 [MLE300]
